Kd and MIC data for 4 compounds are collected here from publication PMC4696493 (RSC advances, 2014).

Usually Kd stands for the free concentration of one partner at which half of the binding sites on the other are occupied at equilibrium, for simple one-to-one binding. High values mean weaker binding, low ones tighter binding. Usually MIC stands for the lowest concentration that inhibits growth of the organism.

≈ marks a conversion by molar mass, not a printed value. Like-named read-outs stand apart in the source and are kept apart here. No end group written: not given here.

One experiment has as its target G-actin (Oryctolagus cuniculus, UniProt P68135). The experiment in a line: Surface plasmon resonance, actin binding. Details: species or system rabbit. A general note: In SPR one partner is held on a chip, and binding of the other changes the refractive index at the surface.

In turn, KRIVQRIKDF-NH2 [KR-10] registered a Kd on G-actin of 28.4 µM. In the experiment with E. coli K12 (K12), this compound displayed an MIC of more than 160 µM.
Compound KRIVQRIKDFLR-NH2 [KR-12] displayed a Kd at G-actin of 11.8 µM. The compound also showed an MIC against Bacillus subtilis PY79 (PY79) of 6.6 µM.
With FKRIVQRIKDFLR-NH2 [FK-13], on G-actin, the Kd worked out at 18.6 µM. Besides, the MIC against Bacillus subtilis PY79 (PY79) was 3.3 µM.
In the case of `CC[C@H](C)[C@H](NC(=O)[C@H](CCCCN)NC(=O)[C@H](CCC(=O)O)NC(=O)[C@H](CCCCN)NC(=O)[C@H](CO)NC(=O)[C@H](CCCCN)NC(=O)[C@H](CCCNC(=N)N)NC(=O)[C@H](Cc1ccccc1)NC(=O)[C@H](Cc1ccccc1)NC(=O)[C@H](CC(=O)O)NC(=O)CNC(=O)[C@H](CC(C)C)NC(=O)[C@@H](N)CC(C)C)C(=O)NCC(=O)N[C@@H](CCCCN)C(=O)N[C@@H](CCC(=O)O)C(=O)N[C@@H](Cc1ccccc1)C(=O)N[C@@H](CCCCN)C(=O)N[C@@H](CCCNC(=N)N)C(=O)N[C@H](C(=O)N[C@H](C(=O)N[C@@H](CCC(N)=O)C(=O)N[C@@H](CCCNC(=N)N)C(=O)N[C@H](C(=O)N[C@@H](CCCCN)C(=O)N[C@@H](CC(=O)O)C(=O)N[C@@H](Cc1ccccc1)C(=O)N[C@@H](CC(C)C)C(=O)N[C@@H](CCCNC(=N)N)C(=O)N[C@@H](CC(N)=O)C(=O)N[C@@H](CC(C)C)C(=O)N[C@H](C(=O)N1CCC[C@H]1C(=O)N[C@@H](CCCNC(=N)N)C(=O)N[C@H](C(=O)N[C@@H](CCC(=O)O)C(=O)N[C@@H](CO)C(=O)O)[C@@H](C)O)C(C)C)[C@@H](C)CC)C(C)C)[C@@H](C)CC` [LL-37, reference compound], the minimum inhibitory concentration (MIC) in the experiment with Bacillus subtilis PY79 (measured with B. subtilis PY79, LB, 37 °C) was found to be 1.1 µM (≈ 4.94 µg/mL); in the experiment on E. coli K12 (E. coli K12, 100 mM NaCl, tryptic soy broth (TSB)), 10 µM (≈ 44.9 µg/mL); in the experiment with E. coli K12 (E. coli K12, no salt, tryptic soy broth (TSB)) it was 10 µM.
